# pIC50: −log10 of the molar value. Where “and” joins values, the source holds several entries; their conditions need not be identical. Equal entries are not always repeated.
# Test system: 327498-153-R-J2-PDC multicell spheroid viability
# Assay: Anticancer human tumor 327498-153-R-J2-PDC patient-derived uterine carcinosarcoma cell line growth inhibition [IpAb]
# Conditions: for viability, T/C: stronger effect = lower value; for pIC50: curve of compound
# Description: Combinatorial screen of targeted agents with ipatasertib and abemaciclib in multi-cell type tumor spheroids
# A high-throughput screen of multi-cell type tumor spheroids was designed to identify active combinations of targeted small molecules and ipatasertib or abemaciclib. Complex spheroids include a stromal component modeled by human endothelial cells (HUVEC) and fibroblasts modeled by human mesenchymal stem cells (MSCs). The concentration ranges selected for each drug and investigational agent were based upon clinically achievable concentrations if the clinical Cmax of the agent was known.
# Compounds. The drugs and investigational agents: ipatasertib (NSC767898), abemaciclib(NSC768073), selumetinib (NSC741078), trametinib (758246), adavosertib (NSC754352), everolimus (NSC733504), sapanisertib (NSC764658), vemurafenib (NSC761431), venetoclax (NSC766270), copanlisib (NSC809693), apelisib (NSC765974), palbociblib (NSC758247), vemurafenib (NSC761431), dabrafenib (NSC764134), ravoxertinib (NSC781343), BMS-387032 (NSC767048), sotorasib (NSC818433), talazoparib (NSC767125) and afursertib (NSC778305), were obtained from the National Cancer Institute (NCI) Developmental Therapeutics Program Chemical Repository. The FDA-approved anticancer drug set is available from the NCI Developmental Therapeutics Program. […] The stock solutions were prepared in dimethyl sulfoxide (DMSO, Sigma-Aldrich, St. Louis, MO, cat. D2650) at 800-fold the tested concentration and stored at -70 degrees C prior to their use. All drugs and investigational agents were tested over a range starting from a high concentration at or near the clinical Cmax and decreasing in half-log increments. If the clinical Cmax for an agent had not been determined, the highest concentration tested was 10 microM.
# NCI60 Cell Culture. NCI60 cell lines were obtained from the NCI Developmental Therapeutics Program Tumor Repository. For each lot of cells, the Repository performed Applied Biosystems AmpFLSTR Identifiler testing with PCR amplification to confirm consistency with the published Identifier STR profile for each cell line. Cells were kept in continuous culture for no more than 20 passages. The optimal seeding densities for each of the cell lines at each time point assessed were determined prior to performing the concentration response studies. Briefly, the NCI60 human tumor lines were grown as monolayers in RPMI 1640 medium supplemented with 10% FBS and 2 mmol/L L-glutamine.
# An additional 9 lines were from the NCI60 cell line panel including MDA-MB-231 breast carcinoma, MDA-MB-468 breast carcinoma, MCF7 breast carcinoma, Hs578T breast carcinoma, MALME-3M melanoma, SK-MEL-2 melanoma, SK-OV-3 ovarian carcinoma, DU-145 prostate carcinoma, PC-3 prostate carcinoma, all cell lines along with major genetic alterations are listed on Table 2. Pooled donor human umbilical vein endothelial cells (HUVEC, Lonza, cat. CC-2519) and human mesenchymal stem cells (hMSC, Lonza, cat. PT-2501) were purchased from Lonza (Walkersville, MD).
# PDMR cell lines were grown in complete medium (DC medium): Dulbecco's modified Eagle's medium (DMEM)/F12 supplemented with 5% fetal bovine serum (FBS), 2 mM L-glutamine, 100 U/mL penicillin and 100 µg/ml streptomycin, 0.4 µg/ml hydrocortisone, 10 ng/ml epidermal growth factor (EGF) recombinant human protein, 24 µg/mL adenine, and 0.1 mg/mL primocin. During culture from frozen stock vials, PDMR cells were cultured in the same medium containing 10 µM Y-27632 (see Table 3). The PDCs were cultured in complete DMEM/F12 media without 10 microM Y-27632 dihydrochloride for at least two passages prior to the screen. The pooled donor HUVEC and hMSC were cultured in endothelial cell growth medium 2 (PromoCell, Heidelberg, Germany, cat. C-22011) and mesenchymal stem cell growth medium 2 (PromoCell, cat. C-28009), respectively. For all experiments, HUVEC and hMSC were used at passages </=5.
# […]
# 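Further: spheroids exposed to agents for 7 days.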
# 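Wherever viability, T/C is given: 100% = DMSO vehicle control viability.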
pIC50,Structure (SMILES),"viability, T/C (compound 0.0316 µM)","viability, T/C (compound 0.1 µM)","viability, T/C (compound 0.316 µM)","viability, T/C (compound 1 µM)","viability, T/C (compound 3.16 µM)","viability, T/C (compound 10 µM)","viability, T/C (compound 0.01 µM)",also measured
< 5.00,C=CC(=O)N1CCN(c2nc(=O)n(-c3c(C)ccnc3C(C)C)c3nc(-c4c(O)cccc4F)c(F)cc23)C(C)C1 (configuration not stated),73.5% and 77.4%,69.2% and 69.6%,58.3% and 67.6%,65.6% and 63.7%,67.2% and 65%,55.8% and 59.9%,–,–
6.44 and 6.43,C=CCn1c(=O)c2cnc(Nc3ccc(N4CCN(C)CC4)cc3)nc2n1-c1cccc(C(C)(C)O)n1,97% and 97.5%,106% and 94.9%,56.2% and 56.8%,4.15% and 5.89%,3.83% and 4.76%,5.49% and 6.6%,–,–
< 6.52,CC(=O)c1c(C)c2cnc(Nc3ccc(N4CCNCC4)cn3)nc2n(C2CCCC2)c1=O,–,–,–,–,–,–,–,"viability, T/C (compound 0.000949 µM): 106% and 97.8%; viability, T/C (compound 0.003 µM): 96.7% and 103%; viability, T/C (compound 0.00949 µM): 99.7% and 95.5%; viability, T/C (compound 0.03 µM): 79.2% and 89.8%; viability, T/C (compound 0.0949 µM): 70.2% and 70.4%; viability, T/C (compound 0.3 µM): 71% and 56.5%"
6.77,CC(C)(C)c1cnc(CSc2cnc(NC(=O)C3CCNCC3)s2)o1,–,–,–,–,–,–,–,"viability, T/C (compound 0.00949 µM): 106% and 96.9%; viability, T/C (compound 0.03 µM): 108% and 105%; viability, T/C (compound 0.0949 µM): 95.8% and 93.2%; viability, T/C (compound 0.3 µM): 4.76% and 7%; viability, T/C (compound 0.949 µM): 0.89% and 1.1%; viability, T/C (compound 3 µM): 0.6% and 0.58%"
–,CC(C)NCC(C(=O)N1CCN(c2ncnc3c2C(C)CC3O)CC1)c1ccc(Cl)cc1 (configuration not stated),–,98.4% [middle of 13 runs],80.2% [middle of 13 runs],59.7% [middle of 13 runs],48.1% [middle of 13 runs],34.2% [middle of 13 runs],–,"IC50 (compound alone, run of 05/18/2021): 2.46 µM [middle of 13 runs]"
7.90 and 7.94,CC(C)n1nc(-c2ccc3oc(N)nc3c2)c2c(N)ncnc21,31.7% and 27.2%,19.6% and 18.2%,–,–,–,–,54.3% and 52.7%,"viability, T/C (compound 0.000316 µM): 103% and 88.9%; viability, T/C (compound 0.001 µM): 96.1% and 101%; viability, T/C (compound 0.00316 µM): 81.9% and 88%"
5.22 and 5.25,CC1(C)CCC(CN2CCN(c3ccc(C(=O)NS(=O)(=O)c4ccc(NCC5CCOCC5)c([N+](=O)[O-])c4)c(Oc4cnc5[nH]ccc5c4)c3)CC2)=C(c2ccc(Cl)cc2)C1,100% and 102%,104% and 105%,108% and 112%,102% and 108%,107% and 98.3%,7.23% and 3.16%,–,–
< 5.00,CCCS(=O)(=O)Nc1ccc(F)c(C(=O)c2c[nH]c3ncc(-c4ccc(Cl)cc4)cc23)c1F,105% and 102%,116% and 103%,106% and 101%,106% and 98.7%,101% and 96.1%,87.3% and 92.8%,–,–
–,CCN1CCN(Cc2ccc(Nc3ncc(F)c(-c4cc(F)c5nc(C)n(C(C)C)c5c4)n3)nc2)CC1,72.6% [middle of 13 runs],62.2% [middle of 13 runs],57.3% [middle of 13 runs],56.8% [middle of 13 runs],–,–,92% [middle of 13 runs],–
7.06,COc1c(OCCCN2CCOCC2)ccc2c3n(c(=NC(=O)c4cnc(N)nc4)nc12)CCN3,70.7% and 76.3%,46.7% and 45.2%,25.3% and 23.2%,9.52% and 11.8%,–,–,87.7% and 86%,"viability, T/C (compound 0.00316 µM): 98.8% and 95%"

# From PubChem BioAssay AID2060341 (Molecular Pharmacology Branch, DTP, NCI, 2025)
